Data: patent US5281604A, “Angiotensin II receptor blocking 2,3,6-substituted quinazolinones” (American Cyanamid Company, priority 1993, dated 1994)
Values joined by “and” are separate entries in the source; they are usually repeats but may differ in a detail not shown here. Equal entries are not always repeated.

Tested on: ANGIOTENSIN II (AII) VASOPRESSOR RESPONSE
Assay: AII Challenge: blockade of the angiotensin II vasopressor response in conscious spontaneously hypertensive rats
Format: in vivo, rat (Male Okamoto-Aoki SHR)
Excerpt: By administering a compound of this invention to a rat, and then challenging with angiotensin II, a blockage of the vasopressor response is realized.
Conscious Male Okamoto-Aoki SHR, 16-20 weeks old, weighing approximately 330 g are purchased from Charles River Labs (Wilmington, Mass.). Conscious rats are restrained in a supine position with elastic tape. The area at the base of the tail is locally anesthetized by subcutaneous infiltration with 2% procaine. The ventral caudal artery and vein are isolated, and a cannula made of polyethylene (PE) 10-20 tubing (fused together by heat) is passed into the lower abdominal aorta and vena cava, respectively. The cannula is secured, heparinized (1,000 I.U./ml), sealed and the wound is closed. The animals are placed in plastic restraining cages in an upright position. The cannula is attached to a Statham P23Db pressure transducer, and pulsatile blood pressure is recorded to 10-15 minutes with a Gould Brush recorder. (Chan et al., (Drug Development Res., 18:75-94, 1989).
Angiotensin II (human sequence, Sigma Chem. Co., St. Louis, Mo.) of 0.05 and 0.1 ug/kg i.v. is injected into all rats (predosing response). Then a test compound, vehicle or a known angiotensin II antagonist is administered i.v., i.p. or orally to each set of rats. The two doses of angiotensin II are given to each rat again at 30, 60, 90, 120, 180, 240 and 300 minutes post dosing the compound or vehicle. The vasopressor response of angiotensin II is measured for the increase in systolic blood pressure in mmHg. The percentage of antagonism or blockade of the vasopressor response of angiotensin II by a compound is calculated using the vasopressor response (increase in systolic blood pressure) of angiotensin II of each rat predosing the compound as 100%. A compound is considered active if at 30 mg/kg i.v. it antagonized at least 50% of the response.

[1] = 1 mg/kg i.v., AII 0.05 mcg/kg IV, 30 min post dose
[2] = 1 mg/kg i.v., AII 0.1 mcg/kg IV, 30 min post dose
[3] = 29 mg/kg i.v., AII 0.05 mcg/kg IV, 60 min post dose
[4] = 29 mg/kg i.v., AII 0.05 mcg/kg IV, 90 min post dose
[5] = 29 mg/kg i.v., AII 0.05 mcg/kg IV, 120 min post dose
[6] = 29 mg/kg i.v., AII 0.05 mcg/kg IV, 180 min post dose
[7] = 29 mg/kg i.v., AII 0.05 mcg/kg IV, 240 min post dose
[8] = 29 mg/kg i.v., AII 0.05 mcg/kg IV, 300 min post dose
[9] = 29 mg/kg i.v., AII 0.1 mcg/kg IV, 60 min post dose
[10] = 29 mg/kg i.v., AII 0.1 mcg/kg IV, 90 min post dose
[11] = 29 mg/kg i.v., AII 0.1 mcg/kg IV, 120 min post dose
[12] = 29 mg/kg i.v., AII 0.1 mcg/kg IV, 180 min post dose
[13] = 29 mg/kg i.v., AII 0.1 mcg/kg IV, 240 min post dose
[14] = 29 mg/kg i.v., AII 0.1 mcg/kg IV, 300 min post dose

## CCCCc1nc2ccc(C3CC4C(O3)ON(c3ccccc3)C4c3ccccc3)cc2c(=O)n1Cc1ccc(-c2ccccc2-c2nnn[nH]2)cc1 (stereo not drawn) [Example 10, (3α, 3aβ, 5β, 6aβ)-2-Butyl-6-(hexahydro-2,3-diphenylfuro[3,2-d]isoxazol-5-yl)-3-[[2'-(1H-tetrazol-5-yl)[1,1'-biphenyl]-4-yl]methyl]-4(3H)-quinazolinone]
[1]
  % Inhibition: 39%
  Average Change: 33.5 mmHg
  Control Before AII (single rat): 248 mmHg and 230 mmHg
  Response After AII (single rat): 290 mmHg and 255 mmHg
  Response Change (single rat): 42 mmHg and 25 mmHg
[2]
  % Inhibition: 41%
  Average Change: 42.5 mmHg
  Control Before AII (single rat): 250 mmHg and 220 mmHg
  Response After AII (single rat): 295 mmHg and 260 mmHg
  Response Change (single rat): 45 mmHg and 40 mmHg
[3]
  % Inhibition: 82%
  Average Change: 10 mmHg
  Control Before AII (single rat): 265 mmHg and 235 mmHg
  Response After AII (single rat): 270 mmHg and 250 mmHg
  Response Change (single rat): 5 mmHg and 15 mmHg
[4]
  % Inhibition: 82%
  Average Change: 10 mmHg
  Control Before AII (single rat): 235 mmHg and 230 mmHg
  Response After AII (single rat): 250 mmHg and 235 mmHg
  Response Change (single rat): 15 mmHg and 5 mmHg
[5]
  % Inhibition: 77%
  Average Change: 12.5 mmHg
  Control Before AII (single rat): 210 mmHg and 240 mmHg
  Response After AII (single rat): 225 mmHg and 250 mmHg
  Response Change (single rat): 15 mmHg and 10 mmHg
[6]
  % Inhibition: 73%
  Average Change: 15 mmHg
  Control Before AII (single rat): 215 mmHg and 220 mmHg
  Response After AII (single rat): 235 mmHg and 230 mmHg
  Response Change (single rat): 20 mmHg and 10 mmHg
[7]
  % Inhibition: 82%
  Average Change: 10 mmHg
  Control Before AII (single rat): 220 mmHg and 215 mmHg
  Response After AII (single rat): 235 mmHg and 220 mmHg
  Response Change (single rat): 15 mmHg and 5 mmHg
[8]
  % Inhibition: 73%
  Average Change: 15 mmHg
  Control Before AII (single rat): 210 mmHg and 200 mmHg
  Response After AII (single rat): 220 mmHg
  Response Change (single rat): 10 mmHg and 20 mmHg
[9]
  % Inhibition: 86%
  Average Change: 10 mmHg
  Control Before AII (single rat): 265 mmHg and 230 mmHg
  Response After AII (single rat): 270 mmHg and 245 mmHg
  Response Change (single rat): 5 mmHg and 15 mmHg
[10]
  % Inhibition: 72%
  Average Change: 20 mmHg
  Control Before AII (single rat): 230 mmHg and 235 mmHg
  Response After AII (single rat): 250 mmHg and 255 mmHg
  Response Change (single rat): 20 mmHg
[11]
  % Inhibition: 65%
  Average Change: 25 mmHg
  Control Before AII (single rat): 200 mmHg and 215 mmHg
  Response After AII (single rat): 230 mmHg and 235 mmHg
  Response Change (single rat): 30 mmHg and 20 mmHg
[12]
  % Inhibition: 79%
  Average Change: 15 mmHg
  Control Before AII (single rat): 210 mmHg and 220 mmHg
  Response After AII (single rat): 225 mmHg and 235 mmHg
  Response Change (single rat): 15 mmHg
[13]
  % Inhibition: 79%
  Average Change: 15 mmHg
  Control Before AII (single rat): 215 mmHg
  Response After AII (single rat): 235 mmHg and 225 mmHg
  Response Change (single rat): 20 mmHg and 10 mmHg
[14]
  % Inhibition: 79%
  Average Change: 15 mmHg
  Control Before AII (single rat): 210 mmHg
  Response After AII (single rat): 230 mmHg and 220 mmHg
  Response Change (single rat): 20 mmHg and 10 mmHg
